Measurements published in patent publication US10662204B2 (PFIZER INC., priority 2018, dated 2020).

What was measured:
[1] = molecular target: KRAS G12C (Homo sapiens, UniProt P01116, G12C); assay: Cell Activity Assay: accumulation of GDP-bound KRAS G12C in MIAPaCa-2 cells (Raf-1 RBD capture, MSD readout); assay type: cell-based; set-up: endogenous in cells; host or cells: MIAPaCa-2; details: 6 hours, assay limit is 30.00
Method in brief: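 IC50 came from a 4-parameter fit of Ras signal normalized between DMSO and full-inhibition controls. Readout: lysate GTP-Ras bound to immobilized Raf-1 RBD, quantified with pan-Ras antibody and MSD electrochemiluminescence. Lysates derived from MIAPaCa-2 cells treated 6 h with serially diluted compound, 0.3% DMSO.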

[2] = molecular target: T1, GDP-loaded KRAS (1-169) G12C, C51S, C80L, C118S (Homo sapiens, UniProt P01116, C118S/C51S/C80L/G12C); assay: Mass Spectrometry Reactivity Assay (MSRA): covalent adduct of compound and KRAS G12C, Percent Modification; assay type: binding; details: for MSRA (% modification) 10 μM 0.50 hr / MSRA (% modification) 10 μM 0.25 hr: 10 μM compound; for MSRA (% modification) 5.0 μM 0.017 hr / MSRA (% modification) 5.0 μM 0.25 hr: 5.0 μM compound
T1 construct: GDP-loaded KRAS (1-169) G12C, C51S, C80L, C118S
Method in brief: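 Covalent labelling is measured by intact mass: deconvoluted modified and unmodified peak intensities yield percent modification. Compound, usually 5 μM or 10 μM final, reacts at room temperature with 5 μM GDP-bound KRAS G12C (1-169, C51S/C80L/C118S) in Hepes pH 7.5/NaCl/glycerol, sampled at 1, 15, 30, 60 min.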

C=CC(=O)N1CCN(c2ncnc3c(Oc4c(Cl)ccc5[nH]ncc45)cccc23)CC1 [Example 08C, 1-(4-{8-[(5-chloro-1H-indazol-4-yl)oxy]quinazolin-4-yl}piperazin-1-yl)prop-2-en-1-one]
IC50 [1]: 2.98 µM
MSRA (% modification) 10 μM 0.50 hr [2]: 29%

C=CC(=O)N1CCN(c2nc(O[C@@H]3CN(C(C)(C)C)C[C@H]3OC)nc3c(Oc4c(Cl)c(F)cc5[nH]ncc45)nccc23)CC1 [Example 52I, 1-[4-(2-{[(3R,4R)-1-tert-butyl-4-methoxy-pyrrolidin-3-yl]oxy}-8-[(5-chloro-6-fluoro-1H-indazol-4-yl)oxy]pyrido [3,4-d]pyrimidin-4-yl)piperazin-1-yl]prop-2-en-1-one]
IC50 [1]: 0.023 µM
MSRA (% modification) 5.0 μM 0.017 hr [2]: 81%

C=CC(=O)N1CCN(c2nc(O[C@@H]3CN(C)C[C@H]3OC)nc3c(Oc4c(Cl)c(F)cc5[nH]ncc45)nc(C)cc23)CC1 [Example 01K, 1-[4-(8-[(5-chloro-6-fluoro-1H-indazol-4-yl)oxy]-2-{[(3R,4R)-4-methoxy-1-methylpyrrolidin-3-yl]oxy}-6-methylpyrido[3,4-d]pyrimidin-4-yl)piperazin-1-yl]prop-2-en-1-one]
IC50 [1]: 0.065 µM
MSRA (% modification) 5.0 μM 0.017 hr [2]: 65%

C=CC(=O)N1CCN(c2ncnc3c(Cc4c(C)ccc5[nH]ncc45)nccc23)CC1 [Example 02D, 1-(4-{8-[(5-methyl-1H-indazol-4-yl)methyl]pyrido[3,4-d]pyrimidin-4-yl}piperazin-1-yl)prop-2-en-1-one]
IC50 [1]: 4.66 µM
MSRA (% modification) 10 μM 0.50 hr [2]: 12%

C=CC(=O)N1CCN(c2nc(Oc3cccnc3C(F)(F)F)nc3c(Oc4c(Cl)c(F)cc5[nH]ncc45)nccc23)CC1 [Example 07I, 1-[4-(8-[(5-chloro-6-fluoro-1H-indazol-4-yl)oxy]-2-{[2-(trifluoro-methyl)pyridin-3-yl]oxy}pyrido [3,4-s]pyrimidin-4-yl)piperazin-1-yl]prop-2-en-1-one]
IC50 [1]: 0.331 µM
MSRA (% modification) 5.0 μM 0.25 hr [2]: 46%

C=CC(=O)N1CCN(c2nc(O[C@@H]3CN(C)C[C@H]3OCC(F)F)nc3c(Oc4c(Cl)c(F)cc5[nH]ncc45)nccc23)CC1 (racemic) [Example 32I, rac-1-[4-(8-[(5-chloro-6-fluoro-1H-indazol-4-yl)oxy]-2-{[(3R,4R)-4-(2,2-difluoro-ethoxy)-1-methyl-pyrrolidin-3-yl]oxy}pyrido [3,4-d]pyrimidin-4-yl)piperazin-1-yl]prop-2-en-1-one]
IC50 [1]: 0.168 µM
MSRA (% modification) 5.0 μM 0.017 hr [2]: 19%

C=CC(=O)N1CCN(c2nc(NCCN3CCN(C)CC3)nc3c(Oc4c(C)ccc5[nH]ncc45)cccc23)CC1 [Example 19F, 1-[4-(8-[(5-methyl-1H-indazol-4-yl)oxy]-2-{[2-(4-methylpiperazin-1-yl)ethyl]amino}quinazolin-4-yl)piperazin-1-yl]prop-2-en-1-one]
IC50 [1]: 3.7 µM
MSRA (% modification) 10 μM 0.25 hr [2]: 24%

C=CC(=O)N1CCN(c2nc(OC[C@]3(F)CCCN(C)C3)nc3c(Oc4c(Cl)c(F)cc5[nH]ncc45)nc(Cl)cc23)CC1 [Example 25G, 1-[4-(6-chloro-8-[(5-chloro-6-fluoro-1H-indazol-4-yl)oxy]-2-{[(3S)-3-fluoro-1-methylpiperidin-3-yl]methoxy}pyrido[3,4-d]pyrimidin-4-yl)piperazin-1-yl]prop-2-en-1-one]
IC50 [1]: 0.009 µM
MSRA (% modification) 5.0 μM 0.017 hr [2]: 73%

C=CC(=O)N1CCN(c2nc(Oc3cccc4c3CCN(C)C4)nc3c(Oc4c(Cl)c(F)cc5[nH]ncc45)nccc23)CC1 [Example 22I, 1-(4-{8-[(5-chloro-6-fluoro-1H-indazol-4-yl)oxy]-2-[(2-methyl-1,2,3,4-tetrahydro-isoquinolin-5-yl)oxy]pyrido [3,4-d]pyrimidin-4-yl}piperazin-1-yl)prop-2-en-1-one]
IC50 [1]: 0.003 µM
MSRA (% modification) 5.0 μM 0.017 hr [2]: 80%

C=CC(=O)N1CCN(c2nc(OC[C@H]3COCCN3C)nc3c(Oc4c(Cl)c(F)cc5[nH]ncc45)nccc23)CC1 [Example 10H, 1-[4-(8-[(5-chloro-6-fluoro-1H-indazol-4-yl)oxy]-2-{[(3R)-4-methylmorpholin-3-yl]methoxy}pyrido[3,4-d]pyrimidin-4-yl)piperazin-1-yl]prop-2-en-1-one]
IC50 [1]: 0.965 µM
MSRA (% modification) 5.0 μM 0.25 hr [2]: 47%
MSRA (% modification) 10 μM 0.50 hr [2]: 68%

C=CC(=O)N1CCN(c2nc(Oc3cccnc3C3CC3)nc3c(Oc4c(Cl)c(F)cc5[nH]ncc45)nccc23)CC1 [Example 06I, 1-(4-{8-[(5-chloro-6-fluoro-1H-indazol-4-yl)oxy]-2-[(2-cyclo-propyl-pyridin-3-yl)oxy]pyrido [3,4-d]pyrimidin-4-yl}piperazin-1-yl)prop-2-en-1-one]
IC50 [1]: 0.02 µM
MSRA (% modification) 5.0 μM 0.25 hr [2]: 74%

C=CC(=O)N1CCN(c2nc(OCCN(C)C)nc3c(Oc4c(Cl)c(C)cc5[nH]ncc45)cc(Cl)cc23)CC1 [Example 13E, 1-(4-{6-chloro-8-[(5-chloro-6-methyl-1H-indazol-4-yl)oxy]-2-[2-(dimethylamino)ethoxy]quinazolin-4-yl}piperazin-1-yl)prop-2-en-1-one]
IC50 [1]: 0.452 µM
MSRA (% modification) 10 μM 0.25 hr [2]: 75%
MSRA (% modification) 10 μM 0.50 hr [2]: 79%

C=CC(=O)N1CCN(c2nc(OCc3cscn3)nc3c(Oc4c(C)ccc5[nH]ncc45)nccc23)CC1 [Example 22F, 1-(4-{8-[(5-methyl-1H-indazol-4-yl)oxy]-2-(1,3-thiazol-4-ylmethoxy)pyrido[3,4-d]pyrimidin-4-yl}piperazin-1-yl)prop-2-en-1-one]
IC50 [1]: 0.535 µM
MSRA (% modification) 5.0 μM 0.25 hr [2]: 33%

C=CC(=O)N1CCN(c2nc(OC[C@@H]3CCCN3C)nc3c(Oc4c(Cl)c(F)cc5[nH]ncc45)nc(Cl)cc23)C[C@@H]1C [Example 07G, 1-[(2S)-4-(6-chloro-8-[(5-chloro-6-fluoro-1H-indazol-4-yl)oxy]-2-{[(2S)-1-methylpyrrolidin-2-yl]methoxy}pyrido[3,4-d]pyrimidin-4-yl)-2-methylpiperazin-1-yl]prop-2-en-1-one]
IC50 [1]: 0.404 µM
MSRA (% modification) 10 μM 0.25 hr [2]: 77%

C=CC(=O)N1CCN(c2nc(Oc3cccc4c3CCN(C(C)C)C4)nc3c(Oc4c(C)ccc5[nH]ncc45)nccc23)CC1 [Example 30I, 1-[4-(8-[(5-methyl-1H-indazol-4-yl)oxy]-2-{[2-(propan-2-yl)-1,2,3,4-tetrahydro-isoquinolin-5-yl]oxy}pyrido [3,4-d]pyrimidin-4-yl)piperazin-1-yl]prop-2-en-1-one]
IC50 [1]: 0.03 µM
MSRA (% modification) 5.0 μM 0.017 hr [2]: 45%

C=CC(=O)N1CCN(c2ncnc3c(Oc4c(C)ccc5[nH]ncc45)nccc23)[C@@H](C)C1 [Example 10A, 1-[(3S)-3-methyl-4-{8-[(5-methyl-1H-indazol-4-yl)oxy]pyrido[3,4-d]pyrimidin-4-yl}piperazin-1-yl]prop-2-en-1-one]
IC50 [1]: 7.5 µM
MSRA (% modification) 10 μM 0.50 hr [2]: 10%

C=CC(=O)N1CCN(c2ncnc3c(Oc4c(Cl)ccc5[nH]ncc45)nc(C)cc23)CC1 [Example 05A, 1-(4-{8-[(5-chloro-1H-indazol-4-yl)oxy]-6-methylpyrido[3,4-d]pyrimidin-4-yl}piperazin-1-yl)prop-2-en-1-one]
IC50 [1]: 8.41 µM
MSRA (% modification) 10 μM 0.50 hr [2]: 12%
